# Results as given in ChEMBL document CHEMBL5038615, “Discovery of a cinnamyl piperidine derivative as new neddylation inhibitor for gastric cancer treatment” (Eur J Med Chem, 2021).
# Calls of active or inactive are those of the source. The rule behind the calls is not given here.
# Experiments:
# HGC-27 [1] = assay: Induction of apoptosis in human HGC-27 cells assessed as early apoptotic cells at 3 uM measured after 24 hrs by AnnexinV/FITC staining based flow cytometry method (reference value: 0.7%); format: functional
# HGC-27 [2] = assay: Induction of apoptosis in human HGC-27 cells assessed as reduction of mitochondrial membrane potential at 9 uM measured after 24 hrs by JC-1 staining based Flowcytometry assay (reference value: 2.4%); format: functional; parameters: scale not given: the % may be the effect or the level left
# MGC-803 [3] = assay: Cell cycle arrest in human MGC-803 cells assessed as accumulation of cells at G0/G1 phase at 7.5 uM measured after 24 hrs by Flowcytometry assay (reference value: 46.01%); format: functional
# HGC-27 [4] = assay: Induction of apoptosis in human HGC-27 cells assessed as late apoptotic cells at 9 uM measured after 24 hrs by AnnexinV/FITC staining based flow cytometry method (reference value: 2.4%); format: functional
# [5] = target: T1, NEDD8-activating enzyme E1 regulatory subunit (Homo sapiens) (UniProt Q13564); assay: Inhibition of NAE-mediated neddylation in human MGC-803 cells assessed as cullin1-Nedd8 adduct formation at 2.5 to 7.5 uM measured after 24 hrs by western blot assay; format: cell-based; conditions: dose 2.5-7.5 µM
# T1 sequence (whole entry): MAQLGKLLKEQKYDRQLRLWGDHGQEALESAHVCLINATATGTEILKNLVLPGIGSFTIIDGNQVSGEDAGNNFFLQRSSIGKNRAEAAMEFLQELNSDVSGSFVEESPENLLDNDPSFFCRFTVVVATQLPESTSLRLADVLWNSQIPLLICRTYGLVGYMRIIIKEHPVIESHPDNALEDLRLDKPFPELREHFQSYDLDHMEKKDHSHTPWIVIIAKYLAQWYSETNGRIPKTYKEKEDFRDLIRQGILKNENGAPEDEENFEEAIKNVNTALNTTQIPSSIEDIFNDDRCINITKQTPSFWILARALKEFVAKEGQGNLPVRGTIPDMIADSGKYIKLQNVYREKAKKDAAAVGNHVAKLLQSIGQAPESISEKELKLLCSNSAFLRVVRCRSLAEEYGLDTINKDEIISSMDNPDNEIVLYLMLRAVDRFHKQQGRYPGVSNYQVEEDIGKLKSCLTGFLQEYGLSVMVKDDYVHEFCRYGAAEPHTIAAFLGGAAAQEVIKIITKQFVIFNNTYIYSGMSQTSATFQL
# MGC-803 [6] = assay: Antiproliferative activity against human MGC-803 cells assessed as cell survival at 7.5 uM pre-incubated with Z-VAD-FMK followed by compound addition and measured after 24 hrs by MTT assay; format: functional, cell-based
# MGC-803 [7] = assay: Induction of apoptosis in human MGC-803 cells assessed as late apoptotic cells at 5 uM measured after 48 hrs by AnnexinV/FITC staining based flow cytometry method (reference value: 0.9%); format: functional
# MGC-803 [8] = assay: Induction of apoptosis in human MGC-803 cells assessed as down-regulation of Keap1 expression at 2.5 to 7.5 uM measured after 24 hrs by Western blot assay; format: functional, cell-based; conditions: dose 2.5-7.5 µM
# HGC-27 [9] = assay: Induction of apoptosis in human HGC-27 cells assessed as viable cells at 3 uM measured after 48 hrs by AnnexinV/FITC staining based flow cytometry method (reference value: 93.18%); format: functional; conditions: read-out: Activity
# HGC-27 [10] = assay: Induction of apoptosis in human HGC-27 cells assessed as ROS levels at 9 uM measured after 24 hrs by DCFH-DA staining based flow cytometry assay (reference value: 6.8%); format: functional
# MGC-803 [11] = assay: Induction of apoptosis in human MGC-803 cells assessed as ROS levels at 7.5 uM measured after 24 hrs by DCFH-DA staining based flow cytometry assay (reference value: 3.3%); format: functional
# MGC-803 [12] = assay: Induction of apoptosis in human MGC-803 cells assessed as upregulation of Bid at 2.5 to 7.5 uM measured after 24 hrs by Western blot assay; format: functional, cell-based; conditions: dose 2.5-7.5 µM
# HGC-27 [13] = assay: Induction of apoptosis in human HGC-27 cells assessed as necrotic cells at 3 uM measured after 24 hrs by AnnexinV/FITC staining based flow cytometry method (reference value: 1.2%); format: functional
smiles,measurement,setting,value
CCCCCc1ccc(NC(=O)C2CCN(C/C=C/c3ccccc3)CC2)cc1,Activity,HGC-27 [1],7.5%
same,Activity,HGC-27 [2],58%
same,Activity,MGC-803 [3],37.06%
same,Activity,HGC-27 [4],74%
same,inhibition,[5],Active
same,Activity,MGC-803 [6],Active
same,Activity,MGC-803 [7],51%
same,Activity,MGC-803 [8],Active
same,viability at 3 µM,HGC-27 [9],64.4%
same,Activity,HGC-27 [10],25.7%
same,Activity,MGC-803 [11],22.2%
same,Activity,MGC-803 [12],Dose-Dependent Effect
same,Activity,HGC-27 [13],0.4%
